How the values were obtained:
Experiment in all cases: viability relative to DMSO control (fraction); higher = less drug effect (more viable cells)
Settings in all cases: 48 h
ONO-4059 = compound: CC#CC(=O)N1CC[C@@H](n2c(=O)n(-c3ccc(Oc4ccccc4)cc3)c3c(N)ncnc32)C1 [ONO-4059]
Summary of the method: (§1)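 Primary mononuclear tumour cells (Ficoll-isolated from blood or bone marrow, or processed lymph node; fresh or cryopreserved) were plated at 4 × 10^4 cells per well in 384-well plates with pre-plated compounds at five concentrations, one well each. Medium was RPMI-1640 with penicillin/streptomycin, L-glutamine and human serum, at 37 °C and 5% CO2 for 48 h. Viability was read as CellTiter-Glo luminescence relative to the median of 16 inner DMSO wells.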

Idarubicin = compound: CC(=O)[C@]1(O)Cc2c(O)c3c(c(O)c2[C@@H](O[C@H]2C[C@H](N)[C@H](O)[C@H](C)O2)C1)C(=O)c1ccccc1C3=O [Idarubicin]
Summary of the method: as §1

[1] = compound: CC(C)(C)OC(=O)Nc1ccc(-c2cc(C(=O)NCCCCCCC(=O)NO)no2)cc1
Summary of the method: as §1

Quizartinib = compound: CC(C)(C)c1cc(NC(=O)Nc2ccc(-c3cn4c(n3)sc3cc(OCCN5CCOCC5)ccc34)cc2)no1 [Quizartinib]
Summary of the method: as §1

Carfilzomib = compound: CC(C)C[C@H](NC(=O)[C@H](CCc1ccccc1)NC(=O)CN1CCOCC1)C(=O)N[C@@H](Cc1ccccc1)C(=O)N[C@@H](CC(C)C)C(=O)[C@@]1(C)CO1 [Carfilzomib]
Summary of the method: as §1

ERK5-IN-1 = compound: CCOc1cc(C(=O)N2CCC(N3CCN(C)CC3)CC2)ccc1Nc1ncc2c(n1)N(C1CCCC1)c1ccccc1C(=O)N2C [ERK5-IN-1]
Summary of the method: as §1

Birinapant = compound: CC[C@H](NC(=O)[C@H](C)NC)C(=O)N1C[C@@H](O)C[C@H]1Cc1c(-c2[nH]c3cc(F)ccc3c2C[C@@H]2C[C@H](O)CN2C(=O)[C@H](CC)NC(=O)[C@H](C)NC)[nH]c2cc(F)ccc12 [Birinapant]
Summary of the method: as §1

Vincristine = compound: CC[C@]1(O)C[C@H]2CN(CCc3c([nH]c4ccccc34)[C@@](C(=O)OC)(c3cc4c(cc3OC)N(C=O)[C@H]3[C@@](O)(C(=O)OC)[C@H](OC(C)=O)[C@]5(CC)C=CCN6CC[C@]43[C@@H]65)C2)C1 [Vincristine]
Summary of the method: as §1

Obatoclax mesylate = compound: COC1=CC(c2cc3ccccc3[nH]2)=N/C1=C\c1[nH]c(C)cc1C [Obatoclax mesylate]
Summary of the method: as §1

Rigosertib = compound: COc1cc(OC)c(/C=C/S(=O)(=O)Cc2ccc(OC)c(NCC(=O)O)c2)c(OC)c1 [Rigosertib]
Summary of the method: as §1

Tozasertib = compound: Cc1cc(Nc2cc(N3CCN(C)CC3)nc(Sc3ccc(NC(=O)C4CC4)cc3)n2)n[nH]1 [Tozasertib]
Summary of the method: as §1

Imatinib = compound: Cc1ccc(NC(=O)c2ccc(CN3CCN(C)CC3)cc2)cc1Nc1nccc(-c2cccnc2)n1 [Imatinib]
Summary of the method: as §1

Cladribine = compound: Nc1nc(Cl)nc2c1ncn2[C@H]1C[C@H](O)[C@@H](CO)O1 [Cladribine]
Summary of the method: as §1

TMP269 = compound: O=C(NCC1(c2nc(-c3ccccc3)cs2)CCOCC1)c1cccc(-c2noc(C(F)(F)F)n2)c1 [TMP269]
Summary of the method: as §1

With primary T-PLL patient cells (S008) the viability (ONO-4059; 0.0016 µM) was 1.02, the viability (ONO-4059; 0.008 µM) was 1 and the viability (ONO-4059; 0.04 µM) was 1.03. For the same test system, the viability (ONO-4059; 0.2 µM) was 1.03, the viability (ONO-4059; 1 µM) was 1.06 and the viability (Idarubicin; 0.024 µM) was 0.918. It also gave a viability (Idarubicin; 0.12 µM) of 0.591, a viability (Idarubicin; 0.6 µM) of 0.128 and a viability (Idarubicin; 3 µM) of 0.0427. The viability (Idarubicin; 15 µM) was 0.03, the viability ([1]; 0.024 µM) was 0.97 and the viability ([1]; 0.12 µM) was 0.973. For the same test system, the viability ([1]; 0.6 µM) was 1.01, the viability ([1]; 3 µM) was 0.848 and the viability ([1]; 15 µM) was 0.704. It also gave a viability (Quizartinib; 0.016 µM) of 0.99, a viability (Quizartinib; 0.08 µM) of 0.953 and a viability (Quizartinib; 0.4 µM) of 0.986. It also gave a viability (Quizartinib; 2 µM) of 1.03, a viability (Quizartinib; 10 µM) of 1.02 and a viability (Carfilzomib; 0.00016 µM) of 0.997. For the same test system, the viability (Carfilzomib; 0.0008 µM) was 0.434, the viability (Carfilzomib; 0.004 µM) was 0.0161 and the viability (Carfilzomib; 0.02 µM) was 0.0168. The viability (Carfilzomib; 0.1 µM) was 0.0205, the viability (ERK5-IN-1; 0.024 µM) was 0.932 and the viability (ERK5-IN-1; 0.12 µM) was 0.957. It also gave a viability (ERK5-IN-1; 0.6 µM) of 0.985, a viability (ERK5-IN-1; 3 µM) of 0.958 and a viability (ERK5-IN-1; 15 µM) of 0.754. It also gave a viability (Birinapant; 0.0008 µM) of 0.887, a viability (Birinapant; 0.004 µM) of 0.915 and a viability (Birinapant; 0.02 µM) of 0.925. For the same test system, the viability (Birinapant; 0.1 µM) was 0.897, the viability (Birinapant; 0.5 µM) was 0.91 and the viability (Vincristine; 0.016 µM) was 0.66. For the same test system, the viability (Vincristine; 0.08 µM) was 0.34, the viability (Vincristine; 0.4 µM) was 0.269 and the viability (Vincristine; 2 µM) was 0.22. It also gave a viability (Vincristine; 10 µM) of 0.164, a viability (Obatoclax mesylate; 0.024 µM) of 1.02 and a viability (Obatoclax mesylate; 0.12 µM) of 0.899. For the same test system, the viability (Obatoclax mesylate; 0.6 µM) was 0.718, the viability (Obatoclax mesylate; 3 µM) was 0.563 and the viability (Obatoclax mesylate; 15 µM) was 0.175. It also gave a viability (Rigosertib; 0.008 µM) of 1.07, a viability (Rigosertib; 0.04 µM) of 1.02 and a viability (Rigosertib; 0.2 µM) of 1.07. It also gave a viability (Rigosertib; 1 µM) of 0.991, a viability (Rigosertib; 5 µM) of 0.98 and a viability (Tozasertib; 0.024 µM) of 0.977. It also gave a viability (Tozasertib; 0.12 µM) of 0.957, a viability (Tozasertib; 0.6 µM) of 0.974 and a viability (Tozasertib; 3 µM) of 0.933. It also gave a viability (Tozasertib; 15 µM) of 0.948, a viability (Imatinib; 0.08 µM) of 0.971 and a viability (Imatinib; 0.4 µM) of 1.07. It also gave a viability (Imatinib; 2 µM) of 0.994, a viability (Imatinib; 10 µM) of 0.978 and a viability (Cladribine; 0.024 µM) of 0.925. It also gave a viability (Cladribine; 0.12 µM) of 0.774, a viability (Cladribine; 0.6 µM) of 0.489 and a viability (Cladribine; 3 µM) of 0.407. The viability (Cladribine; 15 µM) was 0.363, the viability (TMP269; 0.024 µM) was 1.04 and the viability (TMP269; 0.12 µM) was 1.01. The viability (TMP269; 0.6 µM) was 1.01, the viability (TMP269; 3 µM) was 1.01 and the viability (TMP269; 15 µM) was 0.947.
With primary ALL patient cells (S048) the viability (ONO-4059; 0.0016 µM) was 0.999, the viability (ONO-4059; 0.008 µM) was 0.93 and the viability (ONO-4059; 0.04 µM) was 0.981. It also gave a viability (ONO-4059; 0.2 µM) of 0.951, a viability (ONO-4059; 1 µM) of 0.995 and a viability (Idarubicin; 0.024 µM) of 0.171. It also gave a viability (Idarubicin; 0.12 µM) of 0.0644, a viability (Idarubicin; 0.6 µM) of 0.0177 and a viability (Idarubicin; 3 µM) of 0.0135. For the same test system, the viability (Idarubicin; 15 µM) was 0.0126, the viability ([1]; 0.024 µM) was 0.479 and the viability ([1]; 0.12 µM) was 0.287. For the same test system, the viability ([1]; 0.6 µM) was 0.104, the viability ([1]; 3 µM) was 0.0485 and the viability ([1]; 15 µM) was 0.0165. For the same test system, the viability (Quizartinib; 0.016 µM) was 0.872, the viability (Quizartinib; 0.08 µM) was 0.82 and the viability (Quizartinib; 0.4 µM) was 0.877. For the same test system, the viability (Quizartinib; 2 µM) was 0.784, the viability (Quizartinib; 10 µM) was 0.792 and the viability (Carfilzomib; 0.00016 µM) was 0.718. The viability (Carfilzomib; 0.0008 µM) was 0.0489, the viability (Carfilzomib; 0.004 µM) was 0.014 and the viability (Carfilzomib; 0.02 µM) was 0.0161. It also gave a viability (Carfilzomib; 0.1 µM) of 0.0184, a viability (ERK5-IN-1; 0.024 µM) of 0.657 and a viability (ERK5-IN-1; 0.12 µM) of 0.69. It also gave a viability (ERK5-IN-1; 0.6 µM) of 0.397, a viability (ERK5-IN-1; 3 µM) of 0.241 and a viability (ERK5-IN-1; 15 µM) of 0.0525. For the same test system, the viability (Birinapant; 0.0008 µM) was 0.705, the viability (Birinapant; 0.004 µM) was 0.698 and the viability (Birinapant; 0.02 µM) was 0.683. It also gave a viability (Birinapant; 0.1 µM) of 0.68, a viability (Birinapant; 0.5 µM) of 0.685 and a viability (Vincristine; 0.016 µM) of 0.293. It also gave a viability (Vincristine; 0.08 µM) of 0.151, a viability (Vincristine; 0.4 µM) of 0.0999 and a viability (Vincristine; 2 µM) of 0.0818. For the same test system, the viability (Vincristine; 10 µM) was 0.0695, the viability (Obatoclax mesylate; 0.024 µM) was 1 and the viability (Obatoclax mesylate; 0.12 µM) was 1.13. It also gave a viability (Obatoclax mesylate; 0.6 µM) of 1.18, a viability (Obatoclax mesylate; 3 µM) of 0.583 and a viability (Obatoclax mesylate; 15 µM) of 0.0615. It also gave a viability (Rigosertib; 0.008 µM) of 0.879, a viability (Rigosertib; 0.04 µM) of 0.925 and a viability (Rigosertib; 0.2 µM) of 0.84. For the same test system, the viability (Rigosertib; 1 µM) was 0.712, the viability (Rigosertib; 5 µM) was 0.314 and the viability (Tozasertib; 0.024 µM) was 0.802. It also gave a viability (Tozasertib; 0.12 µM) of 0.731, a viability (Tozasertib; 0.6 µM) of 0.633 and a viability (Tozasertib; 3 µM) of 0.539. The viability (Tozasertib; 15 µM) was 0.376, the viability (Imatinib; 0.016 µM) was 1.08 and the viability (Imatinib; 0.08 µM) was 1.08. It also gave a viability (Imatinib; 2 µM) of 1.13, a viability (Imatinib; 10 µM) of 1.17 and a viability (Cladribine; 0.024 µM) of 0.259. It also gave a viability (Cladribine; 0.12 µM) of 0.0894, a viability (Cladribine; 0.6 µM) of 0.0652 and a viability (Cladribine; 3 µM) of 0.058. For the same test system, the viability (Cladribine; 15 µM) was 0.0458, the viability (TMP269; 0.024 µM) was 0.62 and the viability (TMP269; 0.12 µM) was 0.647. The viability (TMP269; 0.6 µM) was 0.668, the viability (TMP269; 3 µM) was 0.593 and the viability (TMP269; 15 µM) was 0.576.

Reference: the supplement of paper PMC10733146
